Test results taken from US10150793B2, “Antagonists of CB1 receptor” (INSERM (Institut National de la Santé et de la Recherche …, priority 2011, dated 2018).

How the values were obtained:
[1] = target: T1, human CB1 receptor (Homo sapiens, UniProt P21554); assay: Radioligand binding of the CB1 agonist [3H]CP55,940 in CHO cells; conditions: pregnenolone 10^-12 to 10^-4 M
T1 construct: host or cells: CHO cells
Description: The binding assay for orthosteric binding of pregnenolone has been evaluated using Chinese hamster ovary (CHO) cells expressing the human CB1 receptor.
The CB1 binding of pregnenolone has been evaluated by the affinity of pregnenolone for the agonist site of the human CB1 cannabinoid receptor expressed in CHO cells, determined in a radioligand binding assay of the CB1 agonist [3H] CP 55940. The experiments were performed by CEREP France, using the standard procedures of this provider.

[2] = test system: dopaminergic neurons; assay: Coupled in vivo microdialysis and electrophysiology: VTA dopaminergic neuron firing and dopamine outflow in nucleus accumbens; set-up: species or system rats
Description: Surgery and perfusion procedure were performed to allow concomitant electrophysiological and microdialysis monitoring. Briefly, rats were anesthetized using a 2% mixture of isoflurane/air, and a catheter was inserted into the femoral vein for intravenous drug administration. Thereafter, animals were placed in a stereotaxic frame (David Kopf Instruments, Phymep, Paris, France) equipped with a nose mask for constant delivery of the gas anesthesia (2% isoflurane during surgery, 1.5% isoflurane during electrophysiology and microdialysis experiment), and their rectal temperature was monitored and maintained at 37±1° C. by a heating pad (CMA 150, Carnégie Medecin, Phymep). […]
Single unit recording of DA neuronal firing and monitoring of DA extracellular levels were started 2 h after the beginning of probe perfusion (stabilization period). Dialysates (30 μL) were collected on ice every 15 min, and immediately analyzed to determine the baseline values of DA extracellular levels, defined by three consecutive samples in which DA content varied by less than 10% (9). […] DA neuron firing rate was recorded for 3-5 min to obtain the firing baseline, defined by a variation of less than 10% of the average frequency discharge of the DA neuron. […]
In this example the inventors further analyzed the ability of pregnenolone to inhibit the effects of CB1 activation. […]

[3] = Elevated plus maze, anxiety-like behaviors; type: in vivo, mice; conditions: sc, 30 min before test; pregnenolone 1, 6, 10 mg/kg; rimonabant 10 mg/kg
Description: The elevated plus maze was made by a central platform (10×10 cm) from which departed 4 arms (45×10 cm) at a 90° angle from each other. Two opposite arms, named closed arms had peripheral wall 50 cm high. The two other arms, named open arms had no walls. The maze was suspended at 66 cm from the floor of the room and was brightly lighted (120 lux). The testing consisted in placing the animal in the central platform and the number of entry and the time spent in each compartment of the maze recorded for 5 min. The number of entry and time spent in the open arms are considered and index of anxiety-like behaviors, whilst the total number of entry are and index of locomotor activity.
One of the major side effects of orthosteric antagonists of the CB1 is the induction of behavioral side effect and in particular an axiodepressive state. […] This test has been chosen because an increase in anxiety was the principal undesirable side effect of this compound in humans.

[4] = Plasmatic levels of pregnenolone and allopregnanolone after subcutaneous injection or Alzet minipumps; type: in vivo, mice
Description: Micro-osmotic pumps (Alzet Osmotis Pumps, Charles River, France) with a pump rate of 0.15 μl/hr (model 2006) were filled with pregnenolone dissolved in PEG300 (85%) and ethanol (15%) at a concentration of 125 or 250 mg/ml (corresponding respectively to a daily dose of 12 or 24 mg/kg body weight) and implanted subcutaneously after light anesthesia. All pumps were primed by soaking them in saline at 37° C. for 60 h before implantation.
The effects of pregnenolone administration on plasmatic levels of pregnenolone were compared (n=5 per group) when pregnenolone was administered subcutaneously (6 mg/kg) or by Alzet micro-osmotic pumps (Alzet Osmotis Pumps, Charles River, France, model 2006) that simulate an extended release formulations of pregnenolone. Thus, these mini pump implanted subcutaneously provide a steady release of pregnenolone. Two pregneolone concentrations were used 0.6 mg/kg/hour and 1 mg/kg/hour (10 times and six times lower than the dose administered subcutaneously). […] The half life of pregnenolone administered subcutaneously was quite short (half an hour) and the increase in allopregnanolone was maintained over one hour (FIG. 20). […] Also pregnenolone levels remained in the range of effective therapeutic doses over two weeks.

[5] = Alzet minipump at 0.6 mg/kg/hour

T1 sequence (P21554 whole entry): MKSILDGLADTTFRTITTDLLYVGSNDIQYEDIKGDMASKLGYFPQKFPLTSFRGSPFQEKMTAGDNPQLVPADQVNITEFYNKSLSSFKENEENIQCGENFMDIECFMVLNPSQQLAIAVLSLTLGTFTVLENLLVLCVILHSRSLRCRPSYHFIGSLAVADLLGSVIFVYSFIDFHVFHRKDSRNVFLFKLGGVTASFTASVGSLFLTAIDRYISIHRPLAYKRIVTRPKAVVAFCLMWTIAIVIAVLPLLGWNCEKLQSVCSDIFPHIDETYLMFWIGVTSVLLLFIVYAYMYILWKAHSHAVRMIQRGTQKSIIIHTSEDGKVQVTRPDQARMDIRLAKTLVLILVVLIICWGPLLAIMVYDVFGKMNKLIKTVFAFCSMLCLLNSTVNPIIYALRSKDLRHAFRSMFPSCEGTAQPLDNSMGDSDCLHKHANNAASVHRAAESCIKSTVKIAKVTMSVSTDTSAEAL

With `CC(=O)[C@H]1CC[C@H]2[C@@H]3CC=C4C[C@@H](O)CC[C@]4(C)[C@H]3CC[C@]12C` [Pregnenolone, 5-Pregnen-3β-ol-20-one] as the compound, how does the “orthosteric binding of the CB1 agonist [3H]CP55,940” value [1] read?
The value was “did not modify the specific binding”.

And the “orthosteric binding of the CB1 agonist [3H]CP55,940” value ([1]; listed as pregnenolone)?
The value was “did not displace the orthosteric binding”.

And the “effect on cocaine-induced increase in activity of the dopaminergic system” value ([2]; pregnenolone 2 mg/kg sc 30 min before cocaine 0.0125 to 0.8 mg/kg iv cumulative)?
Its value is “able to antagonize the increase in activity of the dopaminergic system”.

And the “effect on THC-induced increase in dopamine release and dopaminergic neuron activity” value ([2]; sc 30 min prior to THC 0.15 to 1.2 mg/kg iv cumulative)?
Its value is “strongly blunted the increase in dopamine release and in the activity of the dopaminergic neurons”.

What about the “anxiety-like behavior (entries and time spent in open arms)” value [3] of the same compound?
The value was “induced no increase in anxiety”.

What about the plasma allopregnanolone [4, 5] of the same compound?
The plasma allopregnanolone was “did not increased allopregnanolone”.

And the plasmatic pregnenolone [4, 5]?
Its plasmatic pregnenolone is “increased in the range of the maximum increase observed after the subcutaneous injection”.

And the plasma allopregnanolone ([4]; Alzet minipump at 1 mg/kg/hour)?
Its plasma allopregnanolone is “allopregnanolone did not increase”.

And the pregnenolone plasmatic concentrations ([4]; Alzet minipump at 1 mg/kg/hour)?
Its pregnenolone plasmatic concentrations is “at the double of what observed after 6 mg/kg”.

What about the half life ([4]; administered subcutaneously) of the same compound?
Its half life is “half an hour”.

What about the half-life ([4]; mouse, in vivo) of the same compound?
Its half-life is “approximately 30 min”.

What about the plasma allopregnanolone ([4]; pregnenolone subcutaneously at 6 mg/kg) of the same compound?
Its plasma allopregnanolone is “induced an increase in allopregnanolone”.

And the “duration of the increase in pregnenolone levels” value ([4]; subcutaneous injection)?
The value was less than 1 h.

And the “plasmatic levels of pregnenolone” value ([4]; subcutaneously at 6 mg/kg)?
The value was “around 100 ng/ml”.
